Measurements taken from the supplement of paper PMC10307832.

Key:
Assay in all cases: relative viability (nuclei count vs DMSO), 5 days (fraction); higher = more cells survive
[1] = compound: CC(C)CCN1c2nc(Nc3cc(F)c(O)c(F)c3)ncc2N(C)C(=O)C1C [BI-D1870] + CCNC(=O)c1noc(-c2cc(C(C)C)c(O)cc2O)c1-c1ccc(CN2CCOCC2)cc1 [Luminespib] (partner 0.01 µM)
Method in brief: (§1)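 The day after seeding in 1536-well plates, lung cancer cell lines were treated by pin tool with a single drug, or with a fixed anchor-drug dose together with five library-drug doses (not always all listed) in √10 steps. After 5 days, a combined fix-and-stain solution (final 0.05% Triton X-100, 1% formaldehyde, 1 ug/ml Hoechst) was added. Nuclei counted on 4× images gave relative viability as treated counts over vehicle counts, reported as the median of duplicate plates.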

[2] = compound: CC(C)CCN1c2nc(Nc3cc(F)c(O)c(F)c3)ncc2N(C)C(=O)C1C [BI-D1870] + C[C@@H](Oc1cc(-c2cnn(C3CCNCC3)c2)cnc1N)c1c(Cl)ccc(F)c1Cl [Crizotinib] (partner 1 µM)
Method in brief: as §1

[3] = compound: O=c1ncccn1[C@@H]1O[C@H](CO)[C@@H](O)[C@H]1O [Zebularine] + COc1cccc2cc(-c3nc([C@H]4CC[C@H](C(=O)O)CC4)n4ncnc(N)c34)[nH]c12 [OSI-027] (partner 0.5 µM)
Method in brief: as §1

[4] = compound: CC(C)CCN1c2nc(Nc3cc(F)c(O)c(F)c3)ncc2N(C)C(=O)C1C [BI-D1870] + Nc1nc2[nH]cc(CCc3ccc(C(=O)N[C@@H](CCC(=O)O)C(=O)O)cc3)c2c(=O)[nH]1 [Pemetrexed] (partner 0.2 µM)
Method in brief: as §1

| Cell Line | relative viability ([1]; first compound 0.04 µM) | relative viability ([1]; first compound 0.1265 µM) | relative viability ([1]; first compound 0.4 µM) | relative viability ([1]; first compound 1.265 µM) | relative viability ([1]; first compound 4 µM) | relative viability ([2]; first compound 0.04 µM) | relative viability ([2]; first compound 0.1265 µM) | relative viability ([2]; first compound 0.4 µM) | relative viability ([2]; first compound 1.265 µM) | relative viability ([2]; first compound 4 µM) | relative viability ([3]; first compound 1 µM) | relative viability ([3]; first compound 3.162 µM) | relative viability ([3]; first compound 10 µM) | relative viability ([3]; first compound 31.62 µM) | relative viability ([3]; first compound 100 µM) | relative viability ([4]; first compound 0.04 µM) | relative viability ([4]; first compound 0.1265 µM) | relative viability ([4]; first compound 0.4 µM) | relative viability ([4]; first compound 1.265 µM) | relative viability ([4]; first compound 4 µM) |
| --- | --- | --- | --- | --- | --- | --- | --- | --- | --- | --- | --- | --- | --- | --- | --- | --- | --- | --- | --- | --- |
| 201T | 1.1 | 1.01 | 1.06 | 1.07 | 1.12 | 1.02 | 1.02 | 1.04 | 1.07 | 1.03 | 0.602 | 0.691 | 0.517 | 0.592 | 0.378 | 0.319 | 0.308 | 0.307 | 0.344 | 0.316 |
| A549 |  |  |  |  |  | 0.873 | 0.708 | 0.76 | 0.618 | 0.158 |  |  |  |  |  |  |  |  |  |  |
| A-427 | 1.06 | 0.764 | 0.77 | 1.11 | 0.879 | 0.992 | 0.86 | 0.825 | 1.11 | 0.857 | 0.51 | 0.403 | 0.347 | 0.344 | 0.268 | 1.02 | 0.982 | 0.994 | 0.963 | 0.784 |
| ABC-1 | 0.581 | 0.776 |  | 0.512 | 0.371 | 1.19 | 0.49 | 1.12 | 0.988 | 0.591 | 0.522 | 0.413 | 0.401 | 0.367 | 0.443 |  |  |  |  |  |
| BEN | 0.409 | 0.358 | 0.441 | 0.356 | 0.35 | 1.12 | 0.722 | 1.01 | 0.99 | 0.822 | 0.544 | 0.29 | 0.279 | 0.24 | 0.272 | 0.784 | 0.628 | 0.743 | 0.96 | 0.697 |
| CAL-12T | 0.332 | 0.211 | 0.313 | 0.419 | 0.491 | 0.598 | 0.53 | 0.662 | 0.506 | 0.283 | 0.816 | 0.552 | 0.387 | 0.688 | 0.542 | 1.29 | 1.16 | 1.33 | 1.15 | 0.736 |
| COR-L23 | 0.812 | 0.524 | 0.587 | 0.875 | 0.504 | 0.703 | 0.639 | 0.692 | 0.72 | 0.544 | 1.07 | 0.794 | 0.383 | 0.452 | 0.236 | 0.181 | 0.209 | 0.195 | 0.205 | 0.201 |
| COR-L 105 | 0.824 | 0.828 | 0.631 | 0.854 | 0.666 | 0.858 | 0.79 | 0.777 | 0.754 | 0.574 | 0.763 | 0.642 | 0.566 | 0.697 | 0.684 | 1.31 | 0.883 | 1.14 | 1.32 | 1.05 |
| Calu-6 |  |  |  |  |  | 0.883 | 0.741 | 0.886 | 0.597 | 0.629 |  |  |  |  |  |  |  |  |  |  |
| ChaGo-K-1 | 0.643 | 0.406 | 0.601 | 0.631 | 0.551 | 1.19 | 1.09 | 1.08 | 1.06 | 0.994 | 0.66 | 0.593 | 0.331 | 0.239 | 0.23 | 0.255 | 0.245 | 0.253 | 0.242 | 0.235 |
